Assay [1] has as its system NCI-H2228. Briefly: cells. As to conditions: Homo sapiens, NCI-H2228, 72 h.
Description: Antiproliferative activity against human NCI-H2228 cells assessed as reduction in cell growth measured after 72 hrs by MTT assay
Assay [2] addresses ALK tyrosine kinase receptor (Homo sapiens, UniProt Q9UM73, L1196M). Briefly: Inhibition of human N-terminal GST-fused ALK L1196M mutant cytoplasmic domain (1058 to 1620 residues) expressed in baculovirus infected Sf21 insect cells using Srctide as substrate measured after 1 hr by mobility shift assay.
Assay [3] has as its target T1, Receptor-type tyrosine-protein kinase FLT3 (Homo sapiens, UniProt P36888).
T1 sequence (P36888 whole entry): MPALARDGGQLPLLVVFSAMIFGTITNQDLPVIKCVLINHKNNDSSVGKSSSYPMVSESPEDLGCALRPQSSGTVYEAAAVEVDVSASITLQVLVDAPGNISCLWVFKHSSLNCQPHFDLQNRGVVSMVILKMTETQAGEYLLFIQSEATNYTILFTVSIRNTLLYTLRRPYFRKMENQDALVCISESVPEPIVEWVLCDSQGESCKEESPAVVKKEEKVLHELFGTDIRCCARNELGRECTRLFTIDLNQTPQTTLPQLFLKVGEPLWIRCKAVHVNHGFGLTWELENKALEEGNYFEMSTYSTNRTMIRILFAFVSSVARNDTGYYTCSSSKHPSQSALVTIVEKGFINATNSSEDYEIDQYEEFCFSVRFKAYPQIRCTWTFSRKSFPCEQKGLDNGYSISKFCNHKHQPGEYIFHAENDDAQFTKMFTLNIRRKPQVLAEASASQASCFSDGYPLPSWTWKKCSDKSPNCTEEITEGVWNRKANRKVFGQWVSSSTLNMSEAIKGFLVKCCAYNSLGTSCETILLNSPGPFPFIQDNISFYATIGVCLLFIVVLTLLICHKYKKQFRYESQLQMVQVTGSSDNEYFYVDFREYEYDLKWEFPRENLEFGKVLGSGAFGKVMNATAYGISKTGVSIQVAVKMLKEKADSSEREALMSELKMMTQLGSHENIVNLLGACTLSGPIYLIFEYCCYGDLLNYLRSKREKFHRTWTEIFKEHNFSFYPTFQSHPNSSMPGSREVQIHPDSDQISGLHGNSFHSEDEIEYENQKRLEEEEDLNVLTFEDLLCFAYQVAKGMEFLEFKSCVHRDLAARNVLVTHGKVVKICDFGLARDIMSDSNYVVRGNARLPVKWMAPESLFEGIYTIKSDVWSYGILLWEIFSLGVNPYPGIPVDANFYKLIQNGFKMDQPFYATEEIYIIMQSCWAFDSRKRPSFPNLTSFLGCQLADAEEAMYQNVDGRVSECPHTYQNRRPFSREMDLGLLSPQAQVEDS
Briefly: Inhibition of N-terminal GST-tagged human FLT3 cytoplasmic domain (564 to 993 residues) expressed in baculovirus infected Sf21 insect cells using Srctide as substrate measured after 1 hr by mobility shift assay.

For assay [4], the system named is A549. Briefly: cells. The settings on record: Homo sapiens, A549, 72 h.
Description: Antiproliferative activity against human A549 cells assessed as reduction in cell growth measured after 72 hrs by MTT assay
The target in assay [5] is ALK tyrosine kinase receptor (Homo sapiens, UniProt Q9UM73). Kind of assay: Inhibition of human N-terminal GST-fused ALK cytoplasmic domain (1058 to 1620 residues) expressed in baculovirus infected Sf21 insect cells using Srctide as substrate measured after 1 hr by mobility shift assay.
ALK tyrosine kinase receptor (Homo sapiens, UniProt Q9UM73), sequence (Q9UM73 whole entry, the tested form may be a part): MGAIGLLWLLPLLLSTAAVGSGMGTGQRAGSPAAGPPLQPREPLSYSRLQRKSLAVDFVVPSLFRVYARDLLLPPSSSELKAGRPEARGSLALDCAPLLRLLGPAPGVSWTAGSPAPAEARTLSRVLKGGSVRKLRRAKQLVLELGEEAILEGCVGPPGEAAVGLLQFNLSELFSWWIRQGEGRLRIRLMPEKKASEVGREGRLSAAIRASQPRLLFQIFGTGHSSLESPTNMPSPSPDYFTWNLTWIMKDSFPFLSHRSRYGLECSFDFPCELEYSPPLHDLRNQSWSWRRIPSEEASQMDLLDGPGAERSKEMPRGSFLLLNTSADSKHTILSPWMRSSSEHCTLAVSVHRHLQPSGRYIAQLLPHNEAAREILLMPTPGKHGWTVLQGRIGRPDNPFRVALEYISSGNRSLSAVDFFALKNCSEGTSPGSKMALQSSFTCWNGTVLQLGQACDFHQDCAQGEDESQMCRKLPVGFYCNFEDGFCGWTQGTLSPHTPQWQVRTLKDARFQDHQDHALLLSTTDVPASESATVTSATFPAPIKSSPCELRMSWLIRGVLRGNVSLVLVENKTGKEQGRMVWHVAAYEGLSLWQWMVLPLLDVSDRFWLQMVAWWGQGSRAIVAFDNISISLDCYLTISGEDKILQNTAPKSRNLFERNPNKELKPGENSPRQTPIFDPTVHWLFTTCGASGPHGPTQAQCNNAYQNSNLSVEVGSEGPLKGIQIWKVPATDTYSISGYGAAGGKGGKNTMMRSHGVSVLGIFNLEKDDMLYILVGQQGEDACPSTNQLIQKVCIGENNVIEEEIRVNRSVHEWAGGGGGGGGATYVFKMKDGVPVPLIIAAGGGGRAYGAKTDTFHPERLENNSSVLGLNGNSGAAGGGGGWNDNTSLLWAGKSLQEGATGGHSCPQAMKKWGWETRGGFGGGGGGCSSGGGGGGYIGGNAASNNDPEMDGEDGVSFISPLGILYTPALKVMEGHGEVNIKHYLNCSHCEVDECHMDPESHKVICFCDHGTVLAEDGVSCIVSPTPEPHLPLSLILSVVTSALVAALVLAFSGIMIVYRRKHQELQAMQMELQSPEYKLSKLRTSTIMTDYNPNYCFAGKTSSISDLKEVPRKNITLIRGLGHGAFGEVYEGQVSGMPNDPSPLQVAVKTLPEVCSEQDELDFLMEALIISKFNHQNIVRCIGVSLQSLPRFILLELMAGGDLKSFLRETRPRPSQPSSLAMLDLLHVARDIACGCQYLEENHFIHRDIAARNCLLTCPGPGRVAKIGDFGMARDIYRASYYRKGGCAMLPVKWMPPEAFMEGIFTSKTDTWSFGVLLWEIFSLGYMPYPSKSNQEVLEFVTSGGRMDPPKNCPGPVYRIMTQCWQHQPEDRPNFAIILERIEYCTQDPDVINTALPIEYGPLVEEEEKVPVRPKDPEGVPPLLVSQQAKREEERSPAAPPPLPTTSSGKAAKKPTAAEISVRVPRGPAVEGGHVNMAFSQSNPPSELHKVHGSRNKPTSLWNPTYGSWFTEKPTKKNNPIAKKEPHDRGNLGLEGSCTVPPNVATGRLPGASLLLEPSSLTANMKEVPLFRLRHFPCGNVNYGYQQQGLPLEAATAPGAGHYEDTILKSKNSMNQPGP
In assay [6] the target is Epidermal growth factor receptor (Homo sapiens, UniProt P00533). Kind of assay: Inhibition of N-terminal GST-tagged human EGFR cytoplasmic domain (669 to 1210 residues) expressed in baculovirus infected Sf21 insect cells using Srctide as substrate measured after 1 hr by mobility shift assay.
Epidermal growth factor receptor, sequence (P00533 whole entry, the tested form may be a part): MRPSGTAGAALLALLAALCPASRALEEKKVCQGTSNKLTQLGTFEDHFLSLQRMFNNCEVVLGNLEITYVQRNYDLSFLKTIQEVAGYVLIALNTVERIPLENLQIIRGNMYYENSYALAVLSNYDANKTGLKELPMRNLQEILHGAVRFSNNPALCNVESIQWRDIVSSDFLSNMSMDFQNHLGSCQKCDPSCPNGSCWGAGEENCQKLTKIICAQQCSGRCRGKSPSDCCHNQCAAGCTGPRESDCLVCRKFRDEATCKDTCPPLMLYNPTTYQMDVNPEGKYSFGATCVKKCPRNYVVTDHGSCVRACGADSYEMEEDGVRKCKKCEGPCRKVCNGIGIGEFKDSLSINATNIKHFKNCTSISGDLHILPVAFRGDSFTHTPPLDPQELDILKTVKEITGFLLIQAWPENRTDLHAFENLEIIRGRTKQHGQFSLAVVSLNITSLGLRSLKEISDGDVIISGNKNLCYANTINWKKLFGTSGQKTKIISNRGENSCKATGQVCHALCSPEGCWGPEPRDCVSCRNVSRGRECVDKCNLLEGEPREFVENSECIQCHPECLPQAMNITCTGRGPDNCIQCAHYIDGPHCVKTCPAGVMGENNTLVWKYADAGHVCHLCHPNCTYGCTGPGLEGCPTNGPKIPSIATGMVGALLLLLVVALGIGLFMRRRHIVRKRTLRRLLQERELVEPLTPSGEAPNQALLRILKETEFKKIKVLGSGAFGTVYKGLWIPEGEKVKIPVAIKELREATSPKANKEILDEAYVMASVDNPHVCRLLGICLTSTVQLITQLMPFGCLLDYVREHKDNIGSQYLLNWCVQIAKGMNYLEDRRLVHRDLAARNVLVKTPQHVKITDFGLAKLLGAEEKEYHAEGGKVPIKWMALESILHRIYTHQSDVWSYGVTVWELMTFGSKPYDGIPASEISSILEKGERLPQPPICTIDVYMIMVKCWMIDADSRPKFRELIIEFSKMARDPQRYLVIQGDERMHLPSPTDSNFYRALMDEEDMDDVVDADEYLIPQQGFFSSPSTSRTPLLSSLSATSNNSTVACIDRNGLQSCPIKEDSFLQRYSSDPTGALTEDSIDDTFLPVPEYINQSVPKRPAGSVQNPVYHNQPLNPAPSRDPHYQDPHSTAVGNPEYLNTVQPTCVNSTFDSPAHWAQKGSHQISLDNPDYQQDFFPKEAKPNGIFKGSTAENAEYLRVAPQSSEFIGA
The test system of assay [7] is KARPAS-299. Briefly: cells. As to conditions: Homo sapiens, KARPAS-299, 72 h.
Description: Antiproliferative activity against human KARPAS-299 cells assessed as reduction in cell growth measured after 72 hrs by MTT assay
Assay [8] concerns the target ALK tyrosine kinase receptor (Homo sapiens, UniProt Q9UM73, G1202R). Kind of assay: Inhibition of human N-terminal GST-fused ALK G1202R mutant cytoplasmic domain (1058 to 1620 residues) expressed in baculovirus infected Sf21 insect cells using Srctide as substrate measured after 1 hr by mobility shift assay.

ALK tyrosine kinase receptor (Homo sapiens, UniProt Q9UM73, G1202R), sequence (Q9UM73 19-1620 G1202R limits assumed): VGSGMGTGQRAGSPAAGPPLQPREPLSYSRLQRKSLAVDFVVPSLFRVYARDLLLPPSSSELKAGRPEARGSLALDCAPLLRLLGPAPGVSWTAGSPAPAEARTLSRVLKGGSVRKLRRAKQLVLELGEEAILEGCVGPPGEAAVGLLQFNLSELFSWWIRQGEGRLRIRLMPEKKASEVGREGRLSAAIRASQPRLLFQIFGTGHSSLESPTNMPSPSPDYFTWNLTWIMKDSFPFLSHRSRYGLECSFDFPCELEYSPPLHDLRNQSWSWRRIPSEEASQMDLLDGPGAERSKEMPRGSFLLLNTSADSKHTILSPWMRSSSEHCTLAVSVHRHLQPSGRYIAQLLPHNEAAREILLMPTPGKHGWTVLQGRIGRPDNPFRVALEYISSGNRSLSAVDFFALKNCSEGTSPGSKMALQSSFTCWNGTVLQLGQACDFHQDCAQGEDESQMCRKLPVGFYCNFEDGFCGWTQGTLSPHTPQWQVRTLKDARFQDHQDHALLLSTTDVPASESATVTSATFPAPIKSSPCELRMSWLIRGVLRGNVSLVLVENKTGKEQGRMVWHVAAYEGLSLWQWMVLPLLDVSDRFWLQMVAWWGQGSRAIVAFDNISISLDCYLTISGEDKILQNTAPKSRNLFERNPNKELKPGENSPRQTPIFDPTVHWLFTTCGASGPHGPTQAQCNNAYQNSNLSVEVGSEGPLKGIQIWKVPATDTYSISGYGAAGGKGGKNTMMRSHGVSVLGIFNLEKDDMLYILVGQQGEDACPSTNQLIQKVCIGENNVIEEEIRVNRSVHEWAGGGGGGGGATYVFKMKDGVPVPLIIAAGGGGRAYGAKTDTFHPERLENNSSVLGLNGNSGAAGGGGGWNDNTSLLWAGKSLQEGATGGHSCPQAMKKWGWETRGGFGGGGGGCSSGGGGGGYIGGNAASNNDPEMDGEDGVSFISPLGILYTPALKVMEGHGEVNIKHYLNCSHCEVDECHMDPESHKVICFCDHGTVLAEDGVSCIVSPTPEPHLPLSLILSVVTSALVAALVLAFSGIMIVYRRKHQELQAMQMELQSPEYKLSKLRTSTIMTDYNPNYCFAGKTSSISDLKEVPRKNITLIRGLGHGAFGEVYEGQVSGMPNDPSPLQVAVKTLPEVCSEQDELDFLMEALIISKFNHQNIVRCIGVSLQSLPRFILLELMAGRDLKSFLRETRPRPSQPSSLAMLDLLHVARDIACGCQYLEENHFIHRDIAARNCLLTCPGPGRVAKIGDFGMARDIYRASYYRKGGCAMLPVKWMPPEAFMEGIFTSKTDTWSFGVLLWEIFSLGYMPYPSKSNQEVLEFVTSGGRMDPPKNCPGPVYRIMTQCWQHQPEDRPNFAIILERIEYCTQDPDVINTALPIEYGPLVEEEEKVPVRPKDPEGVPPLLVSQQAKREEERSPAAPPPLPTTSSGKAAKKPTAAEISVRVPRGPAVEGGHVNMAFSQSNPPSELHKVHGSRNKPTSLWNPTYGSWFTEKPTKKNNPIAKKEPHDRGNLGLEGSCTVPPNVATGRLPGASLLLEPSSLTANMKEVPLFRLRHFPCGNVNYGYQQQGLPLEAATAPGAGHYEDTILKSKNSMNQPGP

Consider `CN(C)C(=O)c1ccccc1Nc1nc(Nc2ccc3nc(CN4CCCC4)[nH]c3c2)ncc1Cl`, for which the IC50 (usually the concentration at which inhibition is half-maximal) is 0.291 µM in assay [1]; 0.0053 µM in assay [2]; 0.103 µM in assay [3]; more than 10 µM in assay [4]; 0.0034 µM in assay [5]; more than 1 µM in assay [6]. Also, the IC50 was found to be 0.054 µM in assay [7] and 0.0133 µM in assay [8].
For `CN(C)C(=O)c1ccccc1Nc1nc(Nc2ccc3nc(CN4CCSCC4)[nH]c3c2)ncc1Cl`, the results for the IC50 in assay [1], in assay [4] and in assay [7] were 2.35 µM, 7.36 µM and 1.29 µM, respectively.
Turning to `CN(C)Cc1nc2ccc(Nc3ncc(Cl)c(Nc4ccccc4NS(C)(=O)=O)n3)cc2[nH]1`, the IC50 in assay [1] is 0.326 µM; in assay [2], 0.0037 µM; in assay [3], more than 0.2 µM; in assay [4], 3.01 µM; in assay [5], 0.004 µM; in assay [6], more than 1 µM. Further, the figures for the IC50 in assay [7] and in assay [8] were 0.056 µM and 0.0082 µM, respectively.
In the case of `CS(=O)(=O)Nc1ccccc1Nc1nc(Nc2ccc3nc(CN4CCC(O)CC4)[nH]c3c2)ncc1Cl`, the IC50 in assay [1] is 1.3 µM; in assay [4], more than 10 µM; in assay [7] it was 1.29 µM.
Take `CS(=O)(=O)Nc1ccccc1Nc1nc(Nc2ccc3nc(CN4CCCCC4)[nH]c3c2)ncc1Cl`: the IC50 was 0.429 µM in assay [1]; 0.0084 µM in assay [2]; 0.186 µM in assay [3]; 6.01 µM in assay [4]; 0.0053 µM in assay [5]; more than 1 µM in assay [6]. In addition, the IC50 came to 0.068 µM in assay [7] and 0.0071 µM in assay [8].
Consider `CN1CCN(Cc2nc3ccc(Nc4ncc(Cl)c(Nc5ccccc5NS(C)(=O)=O)n4)cc3[nH]2)CC1`, for which the IC50 in assay [2] worked out at 0.0049 µM; in assay [3], 0.135 µM; in assay [5], 0.0036 µM; in assay [8], 0.007 µM.
On to `CCN1CCN(Cc2nc3ccc(Nc4ncc(Cl)c(Nc5ccccc5NS(C)(=O)=O)n4)cc3[nH]2)CC1`, for which the figures for the IC50 in assay [1], in assay [4] and in assay [7] were 1.03 µM, more than 10 µM and 0.432 µM, respectively.
As for `CCN(CC)Cc1nc2ccc(Nc3ncc(Cl)c(Nc4ccccc4NS(C)(=O)=O)n3)cc2[nH]1`, the values for the IC50 in assay [1], in assay [4] and in assay [7] were 1.23 µM, more than 10 µM and 0.079 µM, respectively.
Consider `CN(C)Cc1nc2ccc(Nc3ncc(Cl)c(Nc4ccccc4C(=O)N(C)C)n3)cc2[nH]1`, for which the IC50 is 0.127 µM in assay [1]; 0.0038 µM in assay [2]; more than 0.2 µM in assay [3]; more than 10 µM in assay [4]; 0.0032 µM in assay [5]; more than 1 µM in assay [6]. The IC50 in assay [7] came to 0.047 µM; in assay [8], 0.0069 µM.
Turning to `CC(=O)Nc1ccccc1Nc1nc(Nc2ccc3nc(CN4CCN(CCO)CC4)[nH]c3c2)ncc1Cl`, the IC50 in assay [1] was 2.36 µM; in assay [4], more than 10 µM; in assay [7], 1.35 µM.
Consider `CS(=O)(=O)Nc1ccccc1Nc1nc(Nc2ccc3nc(CN4CCN(CCO)CC4)[nH]c3c2)ncc1Cl`, for which the IC50 was 1.72 µM in assay [1], more than 10 µM in assay [4] and 1.03 µM in assay [7].
Consider `CNC(=O)c1ccccc1Nc1nc(Nc2ccc3nc(CN4CCN(CCO)CC4)[nH]c3c2)ncc1Cl`, for which the IC50 was 1.31 µM in assay [1], more than 10 µM in assay [4] and 0.391 µM in assay [7].
With `CS(=O)(=O)Nc1ccccc1Nc1nc(Nc2ccc3nc(CN4CCOCC4)[nH]c3c2)ncc1Cl`, the IC50 in assay [1] was 1.07 µM; in assay [4] it was more than 10 µM; in assay [7], 0.798 µM.
Turning to `CC(C)N(Cc1nc2ccc(Nc3ncc(Cl)c(Nc4ccccc4NS(C)(=O)=O)n3)cc2[nH]1)C(C)C`, the IC50 in assay [1] is 3.79 µM; in assay [4], 5.37 µM; in assay [7] it was 2.01 µM.
Take `CCN1CCN(Cc2nc3ccc(Nc4ncc(Cl)c(Nc5ccccc5C(=O)N(C)C)n4)cc3[nH]2)CC1`: the IC50 in assay [1] is 0.583 µM; in assay [4] it was more than 10 µM; in assay [7], 0.203 µM.
Consider `CN(C)C(=O)c1ccccc1Nc1nc(Nc2ccc3nc(CN4CCOCC4)[nH]c3c2)ncc1Cl`, for which the results for the IC50 in assay [1], in assay [4] and in assay [7] were 1.27 µM, more than 10 µM and 0.833 µM, respectively.
Consider `CS(=O)(=O)Nc1ccccc1Nc1nc(Nc2ccc3nc(CN4CCSCC4)[nH]c3c2)ncc1Cl`, for which the IC50 in assay [1] was 3.23 µM; in assay [4], more than 10 µM; in assay [7], 1.84 µM.
Turning to `Cc1cc(Nc2ncc(Cl)c(Nc3ccccc3S(=O)(=O)C(C)C)n2)c(OC(C)C)cc1C1CCNCC1` [CERITINIB], the IC50 in assay [1] was found to be 0.107 µM; in assay [3], 0.0864 µM; in assay [7] it was 0.031 µM.
Turning to `CS(=O)(=O)Nc1ccccc1Nc1nc(Nc2ccc3nc(CN4CCCC4)[nH]c3c2)ncc1Cl`, the IC50 in assay [1] turned out to be 0.347 µM; in assay [4], 1.86 µM; in assay [7] it was 0.062 µM.
On to `CNC(=O)c1ccccc1Nc1nc(Nc2ccc3nc(CN4CCC(C)CC4)[nH]c3c2)ncc1Cl`, for which the figures for the IC50 in assay [1], in assay [4] and in assay [7] were 0.632 µM, more than 10 µM and 0.077 µM, respectively.
Take `CN(C)C(=O)c1ccccc1Nc1nc(Nc2ccc3nc(CN4CCCCC4)[nH]c3c2)ncc1Cl`: the IC50 was determined as 0.337 µM in assay [1], 1.87 µM in assay [4] and 0.057 µM in assay [7].
On to `CCN(CC)Cc1nc2ccc(Nc3ncc(Cl)c(Nc4ccccc4C(=O)N(C)C)n3)cc2[nH]1`, for which the IC50 in assay [1] is 1.45 µM; in assay [4] it was 2.93 µM; in assay [7], 1.23 µM.
On to `CC(=O)Nc1ccccc1Nc1nc(Nc2ccc3nc(CN4CCN(C)CC4)[nH]c3c2)ncc1Cl`, for which the IC50 in assay [1] was 0.23 µM; in assay [4], more than 10 µM; in assay [7], 0.107 µM.
For `CNC(=O)c1ccccc1Nc1nc(Nc2ccc3nc(CN(C)C)[nH]c3c2)ncc1Cl`, the IC50 is 0.338 µM in assay [1], 4.79 µM in assay [4] and 0.062 µM in assay [7].
For `CC1CCN(Cc2nc3ccc(Nc4ncc(Cl)c(Nc5ccccc5NS(C)(=O)=O)n4)cc3[nH]2)CC1`, in that order: 0.77 µM, more than 10 µM and 0.136 µM.
On to `CC(=O)Nc1ccccc1Nc1nc(Nc2ccc3nc(CN4CCC(C)CC4)[nH]c3c2)ncc1Cl`, for which the values for the IC50 in assay [1], in assay [4] and in assay [7] were 0.975 µM, 6.03 µM and 0.193 µM, respectively.
Regarding `CN(C)C(=O)c1ccccc1Nc1nc(Nc2ccc3nc(CN4CCN(CCO)CC4)[nH]c3c2)ncc1Cl`, the IC50 is 1.29 µM in assay [1], more than 10 µM in assay [4] and 0.249 µM in assay [7].
With `CC(=O)Nc1ccccc1Nc1nc(Nc2ccc3nc(CN(C)C)[nH]c3c2)ncc1Cl`, the values for the IC50 in assay [1], in assay [4] and in assay [7] were 0.507 µM, more than 10 µM and 0.079 µM, respectively.
As for `CN1CCN(Cc2nc3ccc(Nc4ncc(Cl)c(Nc5ccccc5C(=O)N(C)C)n4)cc3[nH]2)CC1`, the IC50 in assay [2] is 0.0038 µM; in assay [3], more than 0.2 µM; in assay [5], 0.0027 µM; in assay [8], 0.0057 µM.

The record behind these values is ChEMBL document CHEMBL4706712, “Discovery and antitumor activity of Benzo[d]imidazol-containing 2,4-diarylaminopyrimidine analogues as ALK inhibitors with mutation-combating effects” (Bioorg Med Chem, 2021).
